Results on one compound are retold here after US20250170224A1, “METHODS AND COMPOSITIONS FOR TREATING MICROGLIAL DYSFUNCTION AND IMPROVING METABOLIC DYSFUNCTION” (Ultimate Medicine AG, priority 2021, published 2025).

The structures appear in SMILES notation.

One assay has as its system microglia. Put plainly: CML given intraperitoneally or by oral gavage to young-adult and aged SPF mice; microglia analysed. The format is in vivo, mouse. The procedure: Specific pathogen-free (SPF) and germ-free (GF) housed C57BL/6 mice were analyzed at 6-10 weeks of age (young-adult) and 96-104 weeks of age (aged). Mice of the aged group in the nontargeted metabolomics analysis were 17-18 months old. Except for nontargeted metabolomics and microbiota profiling, where only male mice were used, all groups included mice from both sexes. Mice were housed under a 12-hour light/12-hour dark cycle and temperatures of 18-23° C. with 40-60% humidity, with food and water given ad libitum. To avoid cage effects, mice from at least three different cages per experimental group were analyzed. […] For modulation of CML in aged animals, 18-month-old SPF housed C57BL/6 mice were treated orally every third day for 10 weeks with vehicle (20% hydroxypropyl-p-cyclodextrin in 1× phosphate-buffered saline (PBS)), 10 mg kg^−1 ellagic acid (EA) or 3,000 U kg^−1 intestinal alkaline phosphatase (IAP). To assess in vivo intestinal permeability, tracer fluorescein isothiocyanate (FITC)-labeled dextran (4 kDa: Sigma-Aldrich) was used. Briefly, mice were deprived of food 4 hours before and both food and water 4 hours after oral gavage using 200 μl of 80 mg ml^−1 FITC-dextran. Blood was collected retro-orbitally after 4 hours and fluorescence intensity was measured on fluorescence plates using an excitation wavelength of 493 nm and an emission wavelength of 518 nm. To assess in vivo intestinal permeability to CML, mice were treated with […] CML (0.36 mM). Blood was collected retro-orbitally immediately before and 4 hours after treatment. CML translocated into the circulation was measured by liquid chromatography-mass spectrometry (LC-MS). All animal experiments were approved by the local administration in Germany (Regierungsprasidium Freiburg) and were performed in accordance with the respective national, federal, and institutional regulations and the guidelines of the Federation of European Laboratory Animal Science Associations.
Brains were fixed in 4% PFA, dehydrated in 30% sucrose and embedded in Tissue-Tek OCT compound (Sakura Finetek). Fourteen micrometer-thick cryosections were obtained using a cryostat (SM2000R; Leica Biosystems). FFPE tissue from mouse and human brains was sectioned by a microtome to obtain 5-pm sections. Epitopes were unmasked by heat-induced antigen retrieval at pH 6. Sections were blocked with PBS containing 5% bovine serum albumin (BSA) and permeabilized with 0.5% Triton X-100 in blocking solution. The following primary antibodies were incubated overnight at 4° C.: rabbit anti-Iba-1 (1:500 dilution; WAKO); guinea pig anti-Iba-1 (1:1,000 dilution; Synaptic Systems); anti-iNOS (1:500 dilution; Thermo Fisher Scientific) or anti-CML (1:500; Abcam). Secondary antibodies (Alexa Fluor 488-, 568- or 647-conjugated, 1:500 dilution) were incubated for 2 hours at room temperature. For three dimensional (3D)-reconstruction of microglia, free-floating 30-pm cryosections from brain tissue were labeled for 48 hours with anti-Iba-1 (1:500 dilution) at 4° C., followed by Alexa Fluor 647-conjugated secondary antibody at a dilution of 1:500 overnight at 4° C. […] For 3D-reconstruction of microglia, images were analyzed using Imaris v.8.02 (Bitplane) with at least five cells per mouse. All other images were processed and analyzed with Photoshop CC 2015 (Adobe) or ImageJ v.1.53f (National Institutes of Health). […]

Assay [1] relates to bone marrow-derived macrophages (BMDMs). As to the kind of experiment: Bone marrow derived macrophages incubated with increasing concentrations of CML for 48 hours. The format is cell-based, murine. The note with it: in vitro, increasing concentrations of CML (0.1 pM, 1 pM, 10 pM, 100 pM, 1 mM). The procedure:
Cells were cultured at 37° C. and 5% CO2 in a humidified incubator. Murine BMDMs were differentiated from tibial and femoral bone marrow aspirates. Recombinant murine macrophage colony-stimulating factor (Immunotools) was used at 20 ng ml^−1. After 7 days of differentiation, BMDMs were seeded in 24-well plates with 5×10^5 cells per well in triplicates. The medium was switched to serum-free medium 6 hours before the experiment. Cells were incubated with increasing concentrations of CML (untreated, 0.1 pM, 1 pM, 10 pM, 100 pM, 1 mM) for 48 hours, then collected for measurements.
Cell sorting for RT-qPCR and RNA sequencing (RNA-seq) was performed on a MoFlo Astrios (Beckman Coulter; FIG. 7a). Before surface staining, dead cells were excluded by using the Fixable Viability Dye eFluor 780 (1:1,000 dilution; Thermo Fisher Scientific) followed by incubation with Fc receptor blocking antibody CD16/CD32 (1:200 dilution, clone 2.4G2; BD Bioscience). The following antibodies were used for surface staining: anti-CD45 (1:200 dilution, clone 30-F11; Thermo Fisher Scientific); anti-CD11b (1:200 dilution, clone MI/70; Thermo Fisher Scientific). The following lineage antibodies were used (all at 1:300 dilution): anti-CD3 (clone 17A2; BioLegend); anti-CD19 (clone 6D5; BioLegend); anti-CD45R (clone RA3-6B2; BD Biosciences); Ly6C (clone AL-21; BD Biosciences); Ly6G (clone 1A8; BD Biosciences). […]

[2] abbreviates: aged mice, both intraperitoneal and oral gavage routes.

Turning to `N[C@@H](CCCCNCC(=O)O)C(=O)O` [CML, N^6-carboxymethyllysine], in the assay with microglia (setting [2]), the “cellular ROS in microglia” value is “significantly exacerbated the age-related increase in cellular ROS” and the “metabolic function (cellular ATP) in microglia” value is on record as “diminished metabolic function”. Moreover, the “effect of route of CML administration on percentage of CML+ microglia” value with microglia (aged mice, i.p. versus oral gavage) is “no effect”. Moreover, the “CML+ microglia in the cortex, intraperitoneal rather than oral gavage” value with microglia (young-adult mice) is on record as “more CML^+ microglia in the cortex”. Besides, in the assay on microglia (young-adult mice, i.p. versus oral gavage), the “effect on cellular ROS and metabolic function in microglia” value was “only detectable after intraperitoneal administration”. For the same compound, in assay [1], the “metabolic activity (mitochondrial activity) in BMDMs” value is recorded as “decreased metabolic activity” and the “oxidative stress (cellular ROS) in BMDMs” value is listed as “dose-dependent increase in oxidative stress”.
